Data as given in patent US6242446A, “Method for treating attention deficit disorder” (Merck & Co., Inc., priority 2000, dated 2001).
Like-named read-outs stand apart in the source and are kept apart here.

Columns and labels:
[1] = system: foot tapping in gerbils; experiment: Gerbil Foot-Tapping Assay (induced by central injection of an NK1 agonist); assay type: in vivo, Mongolian gerbils; conditions: Meriones unguiculatus, iv
Text: Gerbil Foot-Tapping Assay CNS penetrant NK-1 receptor antagonists for use in the resent invention can be identified by their ability to inhibit foot tapping in gerbils induced by anxiogenic agents (such as pentagastrin) or central infusion of NK-1 receptor agonists such as GR-73632, or caused by aversive stimulation such as foot shock or single housing, based on the method of Rupniak & Williams, Eur. J. Pharmacol., 1994, 265, 179. Male or female Mongolian gerbils (35-70 g) are anaesthetised by inhalation of an isoflurane/oxygen mixture to permit exposure of the jugular vein in order to permit administration of test compounds or vehicle in an injection volume of 5 ml/kg i.v. Alternatively, test compounds may be administered orally or by subcutaneous or intraperitoneal routes. The wound is closed and a second skin incision is made in the midline of the scalp to expose the skull. […] The duration and/or intensity of hind foot tapping is then recorded continuously for 5 minutes. Alternatively, the ability of test compounds to inhibit foot tapping evoked by aversive stimulation, such as foot shock or single housing, may be studied using a similar method of quantification.

[2] = system: cisplatin-induced emesis in ferrets; experiment: Ferret Emesis Assay (cisplatin-induced emesis); assay type: in vivo; conditions: Mustela putorius, po; cisplatin 10 mg/kg i.v.; 4 hours observation; read-out: ferret emesis ID90
Method: Individually housed male ferrets (1.0-2.5 kg) are dosed orally by gavage with test compound. Ten minutes later they are fed with approximately 100 g of tinned cat food. At 60 minutes following oral dosing, cisplatin (10 mg/kg) is given i.v. via a jugular vein catheter inserted under a brief period of halothane anaesthesia. The catheter is then removed, the jugular vein ligated and the skin incision closed. The ferrets recover rapidly from the anaesthetic and are mobile within 10-20 minutes. The animals are observed continuously during recovery from the anaesthetic and for 4 hours following the cisplatin injection, after which time the animals are killed humanely. The numbers of retches and vomits occurring during the 4 hours after cisplatin administration are recorded by trained observers.

[3] = system: distress vocalisations in guinea-pig pups; experiment: Separation-Induced Vocalisation Assay; assay type: in vivo, guinea-pigs; conditions: Cavia porcellus, po; 4 hr. pre-treatment; read-out: guinea-pig vocalisation (4 hr. pre-treatment) ID50
Text: Separation-Induced Vocalisation Assay Male and female guinea-pigs pups are housed in family groups with their mothers and littermates throughout the study. Experiments are commenced […] when the pups are 2 weeks old. Before entering an experiment, the pups are screened to ensure that a vigorous vocalisation response is reproducibly elicited following maternal separation. The pups are placed individually in an observation cage (55 cm×39 cm×19 cm) in a room physically isolated from the home cage for 15 minutes and the duration of vocalisation during this baseline period is recorded. Only animals which vocalise for longer than 5 minutes are employed for drug challenge studies (approximately 50% of available pups may fail to reach this criterion). On test days each pup receives an oral dose or a s.c. or i.p. injection of test compound or vehicle and is then immediately returned to the home cage with its mother and siblings for 30 minutes to 60 minutes (or for up to 4 hours following an oral dose, dependant upon the oral pharmacokinetics of the test compound) before social isolation for 15 minutes as described above. The duration of vocalisation on drug treatment days is expressed as a percentage of the pre-treatment baseline value for each animal. The same subjects are retested once weekly for up to 6 weeks. Between 6 and 8 animals receive each test compound at each dose tested. […]

C[C@@H](O[C@H]1OCCN(Cc2n[nH]c(=O)[nH]2)[C@H]1c1ccc(F)cc1)c1cc(C(F)(F)F)cc(C(F)(F)F)c1 [2-(R)-(1-(R)-(3,5-bis(trifluoromethyl)-phenyl)-ethoxy)-3-(S)-(4-fluorophenyl)-4-(3-(5-oxo-1H,4H-1,2,4-triazolo)methyl)-morpholine]
ED50 ([1]; 5 min, i.v., 5 mins., read-out: gerbil foot-tapping (5 mins.) ID50): 0.36 mg/kg | ED50 ([1]; 24 hrs. prior to central NK1 agonist challenge, read-out: gerbil foot-tapping (24 hrs.) ID50): 0.33 mg/kg | ED90 [2]: < 3 mg/kg | ED50 [3]: 0.73 mg/kg
